Reference: patent publication US10307439B2, “Substituted nucleosides, nucleotides and analogs thereof” (priority 2014, dated 2019)

Key:
[1] = tested on: human β-coronavirus strain OC43 or human α-coronavirus strain 229E; test: Coronavirus assay (cytopathic effect, CellTiter-Glo, HeLa or MRC-5 cells); format: cell-based; conditions: Betacoronavirus 1; for inhibition: at one or more of the concentrations 75 μM, 10 μM and 2 μM, strain OC43 or 229E not specified; for EC50: coronavirus strain OC43 or 229E not specified, 4 h pre-incubation, 5 days
[2] = tested on: TC-83 strain Venezuelan equine encephalitis virus; test: microbe, parasite or virus in culture; format: cell-based
Chikungunya virus = test: Chikungunya assay; format: cell-based; conditions: 2 h pre-incubation
SARS polymerase = SARS polymerase (Severe acute respiratory syndrome coronavirus, UniProt P0C6X7); test: biochemical; design: species or system SARS virus
MERS = test: microbe, parasite or virus in culture; format: cell-based; conditions: Middle East respiratory syndrome-related coronavirus, 96 h

## CCOc1nc(N)nc2c1ncn2[C@@H]1O[C@](F)(CO[P@](=O)(N[C@@H](C)C(=O)OC2CCCCC2)Oc2ccccc2)[C@@H](O)[C@@]1(C)F (single isomer, unassigned) [Compound 212a]
[1]
  inhibition: ≥ 50%
  EC50: < 10 µM

## CCOc1nc(N)nc2c1ncn2[C@@H]1O[C@](F)(CO[P@@](=O)(N[C@@H](C)C(=O)OC2CCCCC2)Oc2ccccc2)[C@@H](O)[C@@]1(C)F (single isomer, unassigned) [Compound 212b]
[1]
  inhibition: ≥ 50%
  EC50: < 10 µM

## CC(C)OC(=O)OCOP(=O)(OCOC(=O)OC(C)C)OC[C@@]1(F)O[C@@H](n2ccc(=O)[nH]c2=O)[C@](C)(O)[C@@H]1O [Compound 9]
[2]
  EC50: < 10 µM
Chikungunya virus
  EC50: < 10 µM

## C[C@H](NP(=O)(OC[C@@]1(F)O[C@@H](n2cnc3c(=O)[nH]c(N)nc32)[C@](C)(O)[C@@H]1F)Oc1ccccc1)C(=O)OC1CCCCC1 (stereo partly drawn) [Compound 14]
[1]
  inhibition: ≥ 50%

## CCOc1nc(N)nc2c1ncn2[C@@H]1O[C@](F)(COP(=O)(N[C@@H](C)C(=O)OC2CCCCC2)Oc2ccccc2)[C@@H](F)[C@@]1(C)O (stereo partly drawn) [Compound 16]
[1]
  EC50: < 10 µM

## C[C@]1(F)[C@H](n2cnc3c(=O)[nH]c(N)nc32)O[C@](F)(COP(=O)(O)OP(=O)(O)OP(=O)(O)O)[C@H]1O [Compound 19]
SARS polymerase
  IC50: < 10 µM

## CCOc1nc(N)nc2c1ncn2[C@@H]1O[C@](F)(COP(=O)(N[C@@H](C)C(=O)OC(C)C)Oc2ccccc2)[C@@H](F)[C@@]1(C)O (stereo partly drawn) [Compound 22]
[1]
  inhibition: ≥ 50%

## CCOc1nc(N)nc2c1ncn2[C@@H]1O[C@](F)(CO[P@](=O)(N[C@@H](C)C(=O)OC2CCCCC2)Oc2ccccc2)[C@@H](O)[C@@]1(C)F [Compound 25]
[2]
  EC50: < 10 µM
Chikungunya virus
  EC50: < 10 µM
MERS
  EC90: 10 to 50 µM

## C#C[C@]1(O)[C@H](n2cnc3c(OCC)nc(N)nc32)O[C@](F)(CO[P@](=O)(N[C@@H](C)C(=O)OC2CCCCC2)Oc2ccccc2)[C@H]1O [Compound 27]
MERS
  EC90: 10 to 50 µM

## C[C@@]1(O)[C@H](O)[C@@](CF)(COP(=O)(O)OP(=O)(O)OP(=O)(O)O)O[C@H]1n1cnc2c(=O)[nH]c(N)nc21 [Compound 34]
SARS polymerase
  IC50: < 10 µM

## CCOc1nc(N)nc2c1ncn2[C@@H]1O[C@](CF)(COP(=O)(N[C@@H](C)C(=O)OC2CCCCC2)Oc2ccccc2)[C@@H](O)[C@@]1(C)O (stereo partly drawn) [Compound 36]
MERS
  EC90: < 10 µM

## CCOc1nc(N)nc2c1ncn2[C@@H]1O[C@](F)(COP(=O)(OCOC(=O)OC(C)C)OCOC(=O)OC(C)C)[C@@H](O)[C@@]1(C)O [Compound 55]
[2]
  EC50: < 10 µM
Chikungunya virus
  EC50: < 10 µM
[1]
  inhibition: ≥ 50%
  EC50: < 10 µM

## CCOc1nc(N)nc2c1ncn2[C@@H]1O[C@](F)(COP(=O)(OCOC(=O)OC(C)C)OCOC(=O)OC(C)C)[C@@H](F)[C@@]1(C)O [Compound 57]
[1]
  inhibition: ≥ 50%
  EC50: < 10 µM
MERS
  EC90: < 10 µM

## CCOc1nc(N)nc2c1ncn2[C@@H]1O[C@](F)(COP(=O)(OCOC(=O)OC(C)C)OCOC(=O)OC(C)C)[C@@H](O)[C@@]1(C)F [Compound 83]
[1]
  inhibition: ≥ 50%
  EC50: < 10 µM

## C[C@]1(O)[C@H](n2cnc3c(=O)[nH]c(N)nc32)O[C@](F)(COP(=O)(O)OP(=O)(O)OP(=O)(O)O)[C@H]1F [Compound 101]
SARS polymerase
  IC50: < 10 µM

## C#C[C@]1(O)[C@H](n2cnc3c(=O)[nH]c(N)nc32)O[C@](F)(COP(=O)(O)OP(=O)(O)OP(=O)(O)O)[C@H]1F [Compound 103]
SARS polymerase
  IC50: < 10 µM

## C#C[C@]1(F)[C@H](n2cnc3c(=O)[nH]c(N)nc32)O[C@](F)(COP(=O)(O)OP(=O)(O)OP(=O)(O)O)[C@H]1O [Compound 123]
SARS polymerase
  IC50: < 10 µM

## C[C@@]1(F)[C@H](O)[C@@](CF)(COP(=O)(O)OP(=O)(O)OP(=O)(O)O)O[C@H]1n1cnc2c(=O)[nH]c(N)nc21 [Compound 162]
SARS polymerase
  IC50: < 10 µM

## CCOc1nc(N)nc2c1ncn2[C@@H]1O[C@](CN=[N+]=[N-])(COP(=O)(OCOC(=O)OC(C)C)OCOC(=O)OC(C)C)[C@@H](O)[C@H]1F [Compound 179]
[1]
  EC50: < 10 µM

## C#C[C@@]1(O)[C@H](O)[C@@H](COP(=O)(O)OP(=O)(O)OP(=O)(O)O)O[C@H]1n1cnc2c(=O)[nH]c(N)nc21 [Compound 203]
SARS polymerase
  IC50: < 10 µM

## CCOc1nc(N)nc2c1ncn2[C@@H]1O[C@]2(F)COP(=O)(OC(C)C)O[C@H]2[C@@]1(C)F (stereo partly drawn) [Compound 225]
[1]
  inhibition: ≥ 50%

## CCOc1nc(N)nc2c1ncn2[C@@H]1O[C@](F)(COP(=O)(N[C@@H](C)C(=O)OCC(C)(C)C)Oc2cccc3ccccc23)[C@@H](O)[C@@]1(C)F (stereo partly drawn) [Compound 234]
[1]
  inhibition: ≥ 50%

## C[C@@]1(Cl)[C@H](O)[C@@H](COP(=O)(O)OP(=O)(O)OP(=O)(O)O)O[C@H]1n1cnc2c(=O)[nH]c(N)nc21 [Compound 246]
SARS polymerase
  IC50: < 10 µM

## CC(C)(C)C(=O)OCOP(=O)(OCOC(=O)C(C)(C)C)OC[C@H]1O[C@@H](n2ccc(=O)[nH]c2=O)[C@](C)(O)[C@@H]1O [Compound 265]
[2]
  EC50: < 10 µM
Chikungunya virus
  EC50: < 10 µM
MERS
  EC90: 10 to 50 µM

## C[C@H](NP(=O)(OC[C@H]1O[C@@H](n2cnc3c(=O)[nH]c(N)nc32)[C@](C)(Cl)[C@@H]1O)Oc1ccccc1)C(=O)OC1CCCCC1 (stereo partly drawn) [Compound 266]
MERS
  EC90: < 10 µM

## CCOc1nc(N)nc2c1ncn2[C@@H]1O[C@H](COP(=O)(N[C@@H](C)C(=O)OC2CCCCC2)Oc2ccccc2)[C@@H](O)[C@@]1(C)Cl (stereo partly drawn) [Compound 267]
MERS
  EC90: 10 to 50 µM
